Among the data in patent publication EP4752149A1, “OXYGEN-CONTAINING FUSED TRICYCLIC DERIVATIVE, AND PREPARATION METHOD THEREFOR AND USE THEREOF” (Tuojie Biotech (Shanghai) Co., Ltd., priority 2023, dated 2025) are IC50 values, retold here.

Holding throughout (type): cell-based
Assay [1] deals with Ovarian cancer cells (OVCAR3). Briefly: Inhibitory activity against ovarian cancer cells (OVCAR3), CTG cell viability. Particulars: Homo sapiens, OVCAR-3, 168 h, 7 days with compound. The method, then: Ovarian cancer cells (OVCAR3) were cultured using an RPMI 1640 culture medium containing 10% FBS in a cell incubator (37 °C, 5% CO2). On day one, the cells were plated in a 384-well plate at a cell concentration of 800 cells/well and cultured overnight in an incubator. On day two, the cells were treated with compounds. The highest compound concentration was 10 µM and was diluted 3-fold to obtain 9 concentrations, and the final concentration of DMSO was 0.1%. After the cells were cultured in the incubator for another 7 days, the cell viability was tested using a CTG Cell Viability Detection Reagent (MCE); the testing method was consistent with the method provided by the kit. Data were processed using GraphPad Prism 8, and IC50 was calculated. [formula] X: the logarithm of the compound concentration; Y: inhibition%. Table 2. The IC50 (nM) of compounds of the present disclosure against OVCAR3

Assay [2] relates to Triple-negative breast cancer cells (HCC1806). Description: Inhibitory activity against triple-negative breast cancer cells (HCC1806), CTG cell viability. Particulars: Homo sapiens, 168 h, 7 days with compound. The method, then:
Triple-negative breast cancer cells (HCC1806, Nanjing Cobioer Biosciences Co., Ltd.) were cultured using an RPMI 1640 culture medium containing 10% FBS in a cell incubator (37 °C, 5% CO2). On day one, the cells were plated in a 384-well plate at a cell concentration of 200 cells/well and cultured overnight in an incubator. On day two, the cells were treated with compounds. The highest compound concentration was 10 µM and was diluted 3-fold to obtain 9 concentrations, and the final concentration of DMSO was 0.2%. After the cells were cultured in the incubator for another 7 days, the cell viability was tested using a CTG Cell Viability Detection Reagent (MCE); the testing method was consistent with the method provided by the kit. Data were processed using XLfit, and IC50 was calculated. [formula] X: the logarithm of the compound concentration; Y: inhibition%. Table 4. The IC50 (nM) of compounds of the present disclosure against HCC1806

The subject of assay [3] is Human prostate cancer cells (22RV1). Briefly: Inhibitory activity against human prostate cancer cells (22RV1), CTG cell viability. Particulars: Homo sapiens, 120 h, 5 days with compound. The method, then: Human prostate cancer cells (22RV1) were cultured using an RPMI 1640 culture medium containing 10% FBS in a cell incubator (37 °C, 5% CO2). On day one, the cells were plated in a 384-well plate at a cell concentration of 500 cells/well and cultured overnight in an incubator. On day two, the cells were treated with compounds. The highest compound concentration was 10 µM and was diluted 3-fold to obtain 9 concentrations, and the final concentration of DMSO was 0.2%. After the cells were cultured in the incubator for another 5 days, the cell viability was tested using a CTG Cell Viability Detection Reagent; the testing method was consistent with the method provided by the kit. Data were processed using XLFit, and IC50 was calculated. [formula] X: the logarithm of the compound concentration; Y: % inhibition. Table 12. The IC50 (nM) of a compound of the present disclosure against 22RV1

By IC50 is commonly meant the concentration needed to halve the response being measured. Consider `C[C@H]1COc2c(-c3nc(Nc4ccc(N5CCOCC5=O)cc4F)ncc3Cl)cc(F)c3nc(C(C)(C)O)n1c23` [Example 1, (S)-4-(4-((5-Chloro-4-(8-fluoro-2-(2-hydroxypropan-2-yl)-3-methyl-3,4-dihydro-5-oxa-1,2a-diazaacenaphthylen-6-yl)pyrimidin-2-yl)amino)-3-fluorophenyl)morpholin-3-one], for which the IC50 in assay [1] was 672 nM; in assay [2], 150 nM; in assay [3], 80.3 nM.
